From patent US20080027095A1, “Use Of 3-Substituted-2-(Diphenylmethy)-1-Azabicyclo[2.2.2]Octanes For Treating Mrg-X1 Receptor Mediated Diseases” (priority 2005, published 2008)
Where no end group is shown, it is not given here.

Key:
[1] = system: U2OS-hMRGX1-βarrGFP cells; experiment: Toxicity algorithm (Icyt) on the InCell imaging assay; type: cell-based; conditions: even at 100 μM
Protocol: U2OS-hMRGX1-βarrGFP stable cells were cultured in MEM supplemented with 10% heat-inactivated FBS, 4 mM L-Glutamine, 10 μg/ml Gentamicin, 10 mM HEPES, 0.4 mg/ml G-418, and 0.4 mg/ml Zeocin. Cells were plated on black/clear plastic bottom 384-well Corning plates at a density of 3000 cells/well in 20 μl growth medium and cultured overnight. DMSO, or sample compounds titrated in 75% DMSO were transferred from the compound source plate into the assay plate (200 nl/well). After 15 minutes incubation at 37° C. and 5% CO2, 5 μl of agonist (varying concentrations of BAM15 or EC80 concentration of 60 μM for compound titrations) was added and cells were incubated at 37° C. for 30 minutes. The fixing/nuclear staining solution was prepared in PBS as a 2× stock containing 4% paraformaldehyde and 2 μM DRAQ5 and 25 μl of this solution was added to the cells and incubated at room temperature in the dark for 30 minutes. […]
All experiments with dose-response relationships were analyzed by a nonlinear regression software package from Graphpad (San Diego, Calif.). […] Confocal images from the IcCell 3000 were analyzed by the Raven software. Images of 200-300 cells from each well were captured and analyzed with GRN1 (granularity) algorithm using the Raven software of IN Cell Analyzer 3000. […] Icyt value was used to measure the average intensity of the green fluorescence inside the bounding box as described above. […]

hMRG-X1 receptor [2] = target: T1, hMRG-X1 receptor (Homo sapiens, UniProt Q96LB2); experiment: Beta-lactamase (BLA) reporter-gene assay in CHO-hMRG-X1-NFAT/BLA cells; type: cell-based; conditions: for IC50: antagonism of BAM15-induced BLA response
T1 sequence (Q96LB2 whole entry): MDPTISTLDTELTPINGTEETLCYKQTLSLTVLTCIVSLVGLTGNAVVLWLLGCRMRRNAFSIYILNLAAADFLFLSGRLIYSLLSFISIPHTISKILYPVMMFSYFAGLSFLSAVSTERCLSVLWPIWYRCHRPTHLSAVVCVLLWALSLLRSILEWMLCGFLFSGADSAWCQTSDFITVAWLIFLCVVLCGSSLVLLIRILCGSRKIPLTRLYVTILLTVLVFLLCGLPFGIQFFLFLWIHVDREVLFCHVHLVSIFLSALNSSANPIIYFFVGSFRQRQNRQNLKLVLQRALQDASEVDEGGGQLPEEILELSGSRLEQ
Protocol: BLA assays in 384-well plates were performed essentially as described previously (11). For miniaturization of the BLA assay into 3456-well format, cells were serum-starved for ˜18 hours in assay medium (11) the day before the assay. On the day of the assay, cells were dissociated with enzyme-free dissociation buffer, re-suspended into assay medium and dispensed into a 3456-well nanoplate (3000 cells in 1.4 μl/well) using the FRD (Aurora Discovery, San Diego, Calif.) (13). Rest of the BLA assay was conducted essentially as described earlier (13). The cellular response was also observed by fluorescence microscopy with UV illumination. The data are plotted as a ratio of the emissions 460 nm/530 nm. Experimental data points are represented as median±standard deviation of 4-115 replicates.

hMRG-X1 receptor [3] = target: T1, hMRG-X1 receptor; experiment: Intracellular Ca2+ (FLIPR) assay in CHO-hMRG-X1-NFAT/Bla cells; type: cell-based; conditions: inhibition of BAM15-induced i[Ca2+] response
Protocol: Intracellular Ca^2+ measurements were performed essentially as described (14, 15). Modifications include 8000 cells/well of the CHO-hMRG-X1-NFAT/Bla cells in 20 μgrowth medium plated in 384-well plates 24 hours before assay. Cells were loaded with 20 μl of 2X calcium probe and fluorescent quencher. Agonist was prepared as a 4× stock in HBSS buffer and added to the assay plate by the FLIPR384 pipetter (13.3 μl/well). Experimental data points are represented as median±standard deviation of 4 replicates.

hMRG-X1 receptor [4] = target: T1, hMRG-X1 receptor; experiment: Receptor trafficking/internalization assay (InCell, Transfluor) in U2OS-hMRGX1-βarrGFP cells; type: cell-based; conditions: for IC50: 60 μM BAM15 (EC80), receptor trafficking
Protocol: U2OS-hMRGX1-βarrGFP stable cells were cultured in MEM supplemented with 10% heat-inactivated FBS, 4 mM L-Glutamine, 10 μg/ml Gentamicin, 10 mM HEPES, 0.4 mg/ml G-418, and 0.4 mg/ml Zeocin. Cells were plated on black/clear plastic bottom 384-well Corning plates at a density of 3000 cells/well in 20 μl growth medium and cultured overnight. DMSO, or sample compounds titrated in 75% DMSO were transferred from the compound source plate into the assay plate (200 nl/well). After 15 minutes incubation at 37° C. and 5% CO2, 5 μl of agonist (varying concentrations of BAM15 or EC80 concentration of 60 μM for compound titrations) was added and cells were incubated at 37° C. for 30 minutes. The fixing/nuclear staining solution was prepared in PBS as a 2× stock containing 4% paraformaldehyde and 2 μM DRAQ5 and 25 μl of this solution was added to the cells and incubated at room temperature in the dark for 30 minutes. The solution was then aspirated and replaced with PBS before confocal microscopy. Confocal microscopy was performed on the IN Cell Analyzer 3000 (GE Healthcare, Piscataway, N.J.).
All experiments with dose-response relationships were analyzed by a nonlinear regression software package from Graphpad (San Diego, Calif.). In the InCell 3000 imager, two excitation lines, 488 nm and 633 nm, were used to simultaneously excite βarrestin-GFP and the DRAQ5 nuclear stain, respectively. Confocal images from the IcCell 3000 were analyzed by the Raven software. Images of 200-300 cells from each well were captured and analyzed with GRN1 (granularity) algorithm using the Raven software of IN Cell Analyzer 3000. Individual cells or nuclei are first identified by thresholding the red channel (DRAQ5). From the nucleus, a rectangular bounding box was dilated out to the edge of the cell with a dilation setting of 15 pixels. […] This granularity algorithm was used to measure the number of fluorescent spots (Ngrains) based on fluorescent intensity and size of the grains and the average value from all the cells in a well were used to obtain the “Ngrain” value for the well. The same GRN1 algorithm was used to measure toxic affects or other false positives. Icyt value was used to measure the average intensity of the green fluorescence inside the bounding box as described above. Low Icyt values may indicate a sign of toxicity (resulting in either cell lyses or cells rounding up) displaying little or no GFP distribution in the cytoplasm and the plasma membrane, while high Icyt values may be due to the presence of fluorescent compound.

hMRG-X1 receptor [5] = target: T1, hMRG-X1 receptor; experiment: Whole cell receptor binding assay with 3H-BAM in CHO-hMRG-X1-NFAT-BLA cells; conditions: 10 nM 3H-BAM, 4° C.
Protocol: CHO-hMRG-X1-NFAT-BLA cells were plated in a 24-well plate at 60,000 cells/well in 500 μl growth medium and incubated at 37° C. for 24 hours. The cells were washed once with 200 μl assay buffer (HANKS with 0.1% BSA and 20 mM HEPES, pH 7.5, refrigerated at 4° C.) using a vacuum aspirator. 90 μl assay buffer was added to each well followed by an addition of 0.2 μl/well diluted compounds (500X stock in DMSO) and incubated at 4° C. for 5 minutes. […] of ^3H-BAM peptide was added to each well (10 nM final concentration; ˜75,000 dpm) and the assay plate was incubated at 4° C. for 30 minutes with brief gentle shaking every 5 minutes. The assay plate was then washed rapidly with 2X 200 μl assay buffer (approximately 4 to 5 seconds for both washes). All wash steps were performed in a cold room (4° C.). To lyse the cells, 200 μl of 0.2 M NaOH was added to each well and incubate at room temperature for 30 minutes. The cell lysate in each well was transferred to a scintillation vial followed by addition of 3 ml scintillation solution (UltimaGold, PerkinElmer) and counted in a scintillation counter (1 minute per vial).

hMRG-X1 receptor [6] = target: T1, hMRG-X1 receptor; experiment: as above; conditions: [3H]-BAM15

| Compound | IC50 (hMRG-X1 receptor [2]; IC50 BLA) | IC50 (hMRG-X1 receptor [3]; IC50 FLIPR) | IC50 (hMRG-X1 receptor [4]; IC50 InCell) | IC50 (hMRG-X1 receptor [2]; read-out: IC50 BLA) | IC50 (hMRG-X1 receptor [5]; read-out: IC50 Binding) | IC50 (hMRG-X1 receptor [3]; read-out: IC50 FLIPR) | IC50 (hMRG-X1 receptor [4]; read-out: IC50 InCell) | further results |
| --- | --- | --- | --- | --- | --- | --- | --- | --- |
| COc1ccccc1C(=O)C=C1C2CCN(CC2)C1C(c1ccccc1)c1ccccc1 (centres unmarked) [Compound 1] | – | – | – | – | – | – | – | toxicity by toxicity algorithm on the InCell imaging assay [1]: minimal toxicity |
| COc1ccc(C(=O)OC2C3CCN(CC3)C2C(c2ccccc2)c2ccccc2)cc1OC (centres unmarked) [Compound 2] | 0.064 µM | 0.157 µM | 2.8 µM | – | – | – | – | – |
| COc1ccccc1C(O)C=C1C2CCN(CC2)C1C(c1ccccc1)c1ccccc1 (centres unmarked) [Compound 3] | – | – | – | 0.08 µM | 0.182 µM | 0.187 µM | 0.55 µM | – |
| OC(C=C1C2CCN(CC2)C1C(c1ccccc1)c1ccccc1)c1cccc(C(F)(F)F)c1 (centres unmarked) [Compound 4] | – | – | – | 0.09 µM | – | 0.209 µM | 6.78 µM | – |
| O=C(Nc1cccc2ccccc12)OC1C2CCN(CC2)C1C(c1ccccc1)c1ccccc1 (centres unmarked) [Compound 5] | 0.124 µM | 0.904 µM | 2.2 µM | – | – | – | – | IC50 (hMRG-X1 receptor [5]; IC50 Binding): 1.22 µM |
| O=C(Nc1ccccc1Cl)OC1C2CCN(CC2)C1C(c1ccccc1)c1ccccc1 (centres unmarked) [Compound 6] | 0.14 µM | 0.751 µM | 3.6 µM | – | – | – | – | IC50 (hMRG-X1 receptor [5]; IC50 Binding): 0.607 µM |
| C(Cc1ccccc1)=C1C2CCN(CC2)C1C(c1ccccc1)c1ccccc1 (centres unmarked) [Compound 7] | – | – | – | 0.163 µM | 1.43 µM | 0.22 µM | 2.2 µM | – |
| OC(C=C1C2CCN(CC2)C1C(c1ccccc1)c1ccccc1)c1ccc(F)cc1 (centres unmarked) [Compound 8] | – | – | – | 0.165 µM | 0.63 µM | 0.334 µM | 4.8 µM | – |
| Cc1cc(C)cc(C(O)C=C2C3CCN(CC3)C2C(c2ccccc2)c2ccccc2)c1 (centres unmarked) [Compound 9] | – | – | – | 0.2 µM | – | 1.5 µM | 5.2 µM | – |
| N#Cc1cccc(COC2C3CCN(CC3)C2C(c2ccccc2)c2ccccc2)c1 (centres unmarked) [Compound 10] | – | – | – | 0.209 µM | – | 0.492 µM | 10 µM | – |
| FC(F)(F)c1ccccc1CNC1C2CCN(CC2)C1C(c1ccccc1)c1ccccc1 (centres unmarked) [Compound 11] | – | – | – | 0.244 µM | 1.29 µM | 0.46 µM | 5.2 µM | – |
| O=C(OC1C2CCN(CC2)C1C(c1ccccc1)c1ccccc1)c1ccccc1C(F)(F)F (centres unmarked) [Compound 12] | 0.252 µM | 3.3 µM | 8.8 µM | – | – | – | – | IC50 (hMRG-X1 receptor [5]; IC50 Binding): 2.4 µM |
| O=C(Nc1cccc([N+](=O)[O-])c1)OC1C2CCN(CC2)C1C(c1ccccc1)c1ccccc1 (centres unmarked) [Compound 13] | 0.29 µM | 1.3 µM | 6.3 µM | – | – | – | – | IC50 (hMRG-X1 receptor [5]; IC50 Binding): 1.85 µM |
| O=C(Nc1ccccc1Cl)OC1C2CCN(CC2)C1C(c1ccccc1)c1ccccc1 (centres unmarked) [Compound 14] | 0.375 µM | 2.7 µM | 29 µM | – | – | – | – | IC50 (hMRG-X1 receptor [5]; IC50 Binding): 1.18 µM |
| COc1ccccc1NC(=S)NC1C2CCN(CC2)C1C(c1ccccc1)c1ccccc1 (centres unmarked) [Compound 15] | – | – | – | 0.418 µM | 2.51 µM | 9.8 µM | 13.5 µM | – |
| N#Cc1ccc(COC2C3CCN(CC3)C2C(c2ccccc2)c2ccccc2)cc1 (centres unmarked) [Compound 16] | – | – | – | 0.556 µM | 1.85 µM | – | – | – |
| VGRPEWWMDYQKRYG [BAM15, reference compound] | – | – | – | – | – | – | – | Kd (hMRG-X1 receptor [6]): 0.08 µM; EC50 (hMRG-X1 receptor [2]; 1.8 μl assay in 3456-well plates, FIG. 3A, read-out: EC50, BLA assay miniaturized): 0.02 µM; EC50 (hMRG-X1 receptor [2]; 384-well, across 5 clones, FIG. 2B, read-out: EC50s for BAM15, BLA assay): 0.04 to 0.3 µM; EC50 (hMRG-X1 receptor [4]; BAM15-induced, 30 minutes, FIG. 4, read-out: EC50 of pit phenotype (receptor internalization)): ~14 µM |
